Results published in patent US20060019934A1, “Anti-HIV-1 activity of betulinol derivatives” (priority 2004, published 2006).
Like-named read-outs stand apart in the source and are kept apart here.

Assays:
174XCEM cells = test: Cell viability by trypan blue dye exclusion; conditions: for effect on total cell number or cell viability: trypan blue dye exclusion at four days and seven days
Description: Human T-B hybridoma cell line 174XCEM was exposed to a low multiplicity of infection (“MOI”) (MOI=1.0) of stock HIV-1 IIIB isolate for 2 hours at 37° C., washed ×3 with phosphate buffered saline (“PBS”), then plated at 250,000 cells/well in the presence of various agents, shown in Table 2. Dimethyl sulfoxide (“DMSO”) buffer was used as a “no virus” control. A commercially available synthetic peptide, thrombospondin peptide (“TSP”), known as having HIV-1 inhibitory activity, was used as an “inhibitory activity” control. Two HIV isolates were used, a patient isolate (“child HIV”), and the standard CXCR4 co-receptor utilizing isolate IIIB.
The cell samples were assessed by trypan blue dye exclusion at four days and seven days.

HIV-1 IIIB isolate = test: HIV-1 p24 antigen capture ELISA, acutely infected 174XCEM cells; type: cell-based; conditions: for anti-HIV-1 activity compared with other betulinol derivatives: 1 μg/ml, p24 OD, FIG. 1
Excerpt: The assay methods described herein are known in the art, and are described in detail, for example, in Crombie et al., J. Exp. Med. 187:25-35 (1998), which is hereby incorporated by reference in its entirety.
Cultures were maintained in culture medium (RPMI-1640+10% fetal bovine serum (“FBS”)) for 4 days, the culture supernatants were then collected, lysed with Triton®-X 100 surfactant, and HIV-1 gag (p24) antigen activity assessed by a standard technique, the Antigen Capture ELISA (enzyme-linked immunosorbent assay) (Roche-NEN).
Data are presented in optical density (“OD”) units, which are linear with ng/ml of p24 Ag from 0.15 to 1.5 OD, and can be converted to pg/ml of HIV-1 antigen using a standard curve.

another HIV-1 isolate = test: Effect on 174XCEM cells chronically infected with another HIV-1 isolate; type: cell-based
Description: Agents were also evaluated for an effect on 174XCEM cells chronically infected with another HIV-1 isolate.

[1] = system: carcinoma cell line CO-115 of the large intestine; conditions: CO-115 cells; cited from earlier work
[2] = Hashimoto et al. 1997; cited from earlier work
[3] = varying doses up to 2 μg/ml, FIG. 3-5
[4] = chronically infected 174XCEM cells, single dose 1 μg/ml
[5] = 174XCEM cells, HIV-1 IIIB, agents 1 μg/ml, p24 at 4 days, FIG. 2

Compound: C=C(C)[C@@H]1CC[C@]2(CO)CC[C@]3(C)[C@H](CC[C@@H]4[C@@]5(C)CC[C@H](OC(C)=O)C(C)(C)[C@@H]5CC[C@]43C)[C@@H]12 [3-acetoxy betulin]
- effect on total cell number or cell viability (174XCEM cells): no effect
- anti-HIV-1 activity compared with other betulinol derivatives (HIV-1 IIIB isolate): superior

Compound: C=C(C)[C@@H]1CC[C@]2(COC(C)=O)CC[C@]3(C)[C@H](CC[C@@H]4[C@@]5(C)CC[C@H](O)C(C)(C)[C@@H]5CC[C@]43C)[C@@H]12 [28-acetoxy betulin]
- effect on total cell number or cell viability (174XCEM cells): no effect
- anti-HIV-1 activity compared with other betulinol derivatives (HIV-1 IIIB isolate): superior
- dose-related anti-HIV effect (HIV-1 IIIB isolate; [3]): comparable anti-HIV-1 activity

Compound: C=C(C)[C@@H]1CC[C@]2(COC(C)=O)CC[C@]3(C)[C@H](CC[C@@H]4[C@@]5(C)CC[C@H](OC(C)=O)C(C)(C)[C@@H]5CC[C@]43C)[C@@H]12 [betulin diacetate]
- cell toxicity (174XCEM cells; doses of 0.5, 1.5, and 2 μg/ml): without cell toxicity
- inhibition in chronically infected cells (another HIV-1 isolate): 20%
- dose-related anti-HIV effect (HIV-1 IIIB isolate): Progressive increases in anti-HIV effect
- inhibition (anti-HIV-1 effect) (HIV-1 IIIB isolate): 57%

Compound: C=C(C)[C@@H]1CC[C@]2(C(=O)O)CC[C@]3(C)[C@H](CC[C@@H]4[C@@]5(C)CC[C@H](O)C(C)(C)[C@@H]5CC[C@]43C)[C@@H]12 [betulinic acid]
- LD 50 [1]: 0.375 mg/mL

Compound: C=C(C)C1CCC2(CO)CC[C@]3(C)[C@H](CC[C@@H]4[C@@]5(C)CCC(O)C(C)(C)[C@@H]5CC[C@]43C)C12 (stereo partly drawn) [betulinol, lup-20(29)-ene-3β, 28-diol]
- inhibition in chronically infected cells (another HIV-1 isolate; [4]): minimal effect
- inhibition (anti-HIV-1 effect) (HIV-1 IIIB isolate; [5]): no effect
- dose-related anti-HIV effect (HIV-1 IIIB isolate; [3]): increasing anti-HIV effect

Compound: C=C(C)C1CCC2(C=O)CC[C@]3(C)[C@H](CC[C@@H]4[C@@]5(C)CCC(=O)C(C)(C)[C@@H]5CC[C@]43C)C12 (stereo partly shown) [betulone aldehyde]
- inhibition in chronically infected cells (another HIV-1 isolate; [4]): minimal effect
- inhibition (anti-HIV-1 effect) (HIV-1 IIIB isolate; [5]): 37%
- dose-related anti-HIV effect (HIV-1 IIIB isolate; [3]): Progressive increases in anti-HIV effect

Compound: C=C(C)[C@@H]1CC[C@]2(C(=O)O)CC[C@]3(C)[C@H](CC[C@@H]4[C@@]5(C)CCC(=O)C(C)(C)[C@@H]5CC[C@]43C)[C@@H]12 [betulonic acid]
- cytotoxicity, interfering with the proliferation of cells [2]: cytotoxic

Compound: betulin dimethyl ether
- effect on total cell number or cell viability (174XCEM cells): no effect
- anti-HIV-1 activity compared with other betulinol derivatives (HIV-1 IIIB isolate): superior
